Legend:
[1] = molecular target: T1, Ephrin type-B receptor 2 (Homo sapiens, UniProt P29323)
T1 sequence (P29323 whole entry): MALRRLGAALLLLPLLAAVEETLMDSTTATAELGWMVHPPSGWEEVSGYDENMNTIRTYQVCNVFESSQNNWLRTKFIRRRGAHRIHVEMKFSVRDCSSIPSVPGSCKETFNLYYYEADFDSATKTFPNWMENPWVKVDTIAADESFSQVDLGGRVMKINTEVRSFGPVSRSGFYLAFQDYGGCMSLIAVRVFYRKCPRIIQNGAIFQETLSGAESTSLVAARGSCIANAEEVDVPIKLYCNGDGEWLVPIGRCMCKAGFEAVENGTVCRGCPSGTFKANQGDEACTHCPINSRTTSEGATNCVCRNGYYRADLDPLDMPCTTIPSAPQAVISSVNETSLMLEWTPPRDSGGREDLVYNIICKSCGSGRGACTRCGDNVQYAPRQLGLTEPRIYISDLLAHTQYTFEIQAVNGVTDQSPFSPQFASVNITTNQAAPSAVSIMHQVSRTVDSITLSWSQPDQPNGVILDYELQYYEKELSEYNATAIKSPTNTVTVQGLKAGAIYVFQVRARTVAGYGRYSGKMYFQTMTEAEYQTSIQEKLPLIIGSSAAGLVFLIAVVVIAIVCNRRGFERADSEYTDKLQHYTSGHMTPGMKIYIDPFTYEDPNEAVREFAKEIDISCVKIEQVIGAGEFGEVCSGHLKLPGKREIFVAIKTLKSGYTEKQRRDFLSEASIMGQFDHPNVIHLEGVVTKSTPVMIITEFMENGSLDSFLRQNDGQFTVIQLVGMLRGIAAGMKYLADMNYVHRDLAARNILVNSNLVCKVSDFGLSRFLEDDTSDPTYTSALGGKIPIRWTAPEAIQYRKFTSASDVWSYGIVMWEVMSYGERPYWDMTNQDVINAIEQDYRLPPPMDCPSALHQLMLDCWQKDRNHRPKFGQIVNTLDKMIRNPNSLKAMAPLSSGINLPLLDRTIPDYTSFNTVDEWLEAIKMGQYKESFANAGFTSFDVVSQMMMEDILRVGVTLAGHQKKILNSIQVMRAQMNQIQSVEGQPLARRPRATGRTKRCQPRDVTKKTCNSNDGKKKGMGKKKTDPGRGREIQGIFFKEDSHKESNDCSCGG

[2] = molecular target: Receptor-type tyrosine-protein kinase FLT3 (Homo sapiens, UniProt P36888, D835H)
[3] = molecular target: T2, Ephrin type-B receptor 3 (Homo sapiens, UniProt P54753)
T2 sequence (P54753 whole entry): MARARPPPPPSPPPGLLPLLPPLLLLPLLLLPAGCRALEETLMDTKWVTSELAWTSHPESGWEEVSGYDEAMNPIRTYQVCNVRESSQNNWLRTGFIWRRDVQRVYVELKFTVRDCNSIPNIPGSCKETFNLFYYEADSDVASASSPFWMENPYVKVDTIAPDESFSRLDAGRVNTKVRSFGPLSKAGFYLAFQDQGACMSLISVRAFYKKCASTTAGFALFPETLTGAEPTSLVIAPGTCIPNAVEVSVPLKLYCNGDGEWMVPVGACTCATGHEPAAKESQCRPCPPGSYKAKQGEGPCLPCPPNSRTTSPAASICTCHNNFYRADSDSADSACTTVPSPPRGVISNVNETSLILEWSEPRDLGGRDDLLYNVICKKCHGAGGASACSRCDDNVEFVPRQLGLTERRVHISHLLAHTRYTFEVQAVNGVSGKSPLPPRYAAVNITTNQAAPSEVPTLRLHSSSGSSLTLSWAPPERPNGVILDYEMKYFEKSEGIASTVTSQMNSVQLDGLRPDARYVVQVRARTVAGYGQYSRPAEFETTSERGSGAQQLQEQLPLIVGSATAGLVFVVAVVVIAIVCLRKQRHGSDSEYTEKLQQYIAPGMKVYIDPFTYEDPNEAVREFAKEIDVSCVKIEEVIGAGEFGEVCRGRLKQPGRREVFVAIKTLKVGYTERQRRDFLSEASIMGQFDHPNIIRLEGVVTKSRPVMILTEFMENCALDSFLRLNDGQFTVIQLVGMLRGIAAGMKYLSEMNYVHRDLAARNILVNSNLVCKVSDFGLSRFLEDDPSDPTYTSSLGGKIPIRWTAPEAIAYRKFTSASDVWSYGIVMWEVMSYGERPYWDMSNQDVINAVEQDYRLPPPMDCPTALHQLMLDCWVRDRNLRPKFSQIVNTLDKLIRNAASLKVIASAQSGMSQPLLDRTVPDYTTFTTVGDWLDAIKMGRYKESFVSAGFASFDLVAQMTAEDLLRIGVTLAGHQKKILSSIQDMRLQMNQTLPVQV

[4] = molecular target: Mitogen-activated protein kinase 14 (Homo sapiens, UniProt Q16539)
[5] = molecular target: Epidermal growth factor receptor (Homo sapiens, UniProt P00533, L747-S752DEL/P753S)
[6] = molecular target: Epidermal growth factor receptor (Homo sapiens, UniProt P00533)
[7] = molecular target: Epidermal growth factor receptor (Homo sapiens, UniProt P00533, E746-A750DEL)
[8] = molecular target: Epidermal growth factor receptor (Homo sapiens, UniProt P00533, L858R)
[9] = molecular target: Epidermal growth factor receptor (Homo sapiens, UniProt P00533, A750P/L747-E749DEL)
[10] = molecular target: Epidermal growth factor receptor (Homo sapiens, UniProt P00533, G719C)
[11] = molecular target: Epidermal growth factor receptor (Homo sapiens, UniProt P00533, G719S)
[12] = molecular target: Epidermal growth factor receptor (Homo sapiens, UniProt P00533, S752-I759DEL)
[13] = molecular target: Epidermal growth factor receptor (Homo sapiens, UniProt P00533, L861Q)
[14] = molecular target: Epidermal growth factor receptor (Homo sapiens, UniProt P00533, L747-T751DEL)
[15] = molecular target: Cyclin-dependent kinase 9 (Homo sapiens, UniProt P50750)

Measured: Kd

COCC(=O)NC/C=C/c1ccc2ncnc(Nc3ccc(Oc4ccc(C)nc4)c(C)c3)c2c1 [CP-724714]
> 10 µM: [1] | [2] | [3] | [4]

Nc1nc(Nc2ccc(S(N)(=O)=O)cc2)nn1C(=O)c1c(F)cccc1F [JNJ-7706621]
> 10 µM: [5] | [1] | [6] | [7] | [3] | [8] | [9] | [10] | [11] | [12] | [13] | [14]

CCOc1cc2ncc(C#N)c(Nc3ccc(F)c(Cl)c3)c2cc1NC(=O)/C=C/CN(C)C [PELITINIB]
> 10 µM: [1] | [3] | [4]

Oc1ccc(-c2nc(-c3ccncc3)c(-c3ccc(F)cc3)[nH]2)cc1 [SB-202190]
> 10 µM: [1] | [15] | [2] | [3]

NC(=O)c1ccc(-c2nc(-c3ccc4c(c3)OCO4)c(-c3ccccn3)[nH]2)cc1 [SB-431542]
> 10 µM: [5] | [1] | [6] | [15] | [7] | [3] | [8] | [9] | [10] | [11] | [12] | [13] | [14]

From ChEMBL document CHEMBL1150977, “A quantitative analysis of kinase inhibitor selectivity” (Nat Biotechnol, 2008)
